Source: ChEMBL document CHEMBL1146559, “Dihydrolindbladiones, three new naphthoquinone pigments from a myxomycete Lindbladia tubulina” (J Nat Prod, 2003)
≈ marks a conversion by molar mass, not a printed value.

tested on: P388; test: Cytotoxicity against vincristine-resistant mouse P388 cells; type: functional, cell-based

CCCC(=O)CCC1=C(O)C(=O)c2cc(OC)c(OC)c(O)c2C1=O and CCCC(=O)CCC1=C(O)C(=O)c2cc(O)c(OC)c(O)c2C1=O cannot be ordered by IC50: greater than 50 µg/mL for the first, greater than 50 µg/mL for the second.

In the case of CCCC(=O)CCC1=C(O)C(=O)c2cc(O)c(O)c(O)c2C1=O, the IC50 is reported as 14 µg/mL (≈ 43.7 µM).

tested on: P388; test: Cytotoxicity against vincristine-resistant mouse P388 cells in presence of vincristine; type: functional, cell-based

Compared with CCCC(=O)CCC1=C(O)C(=O)c2cc(OC)c(OC)c(O)c2C1=O, CCCC(=O)CCC1=C(O)C(=O)c2cc(O)c(OC)c(O)c2C1=O is lower in IC50: greater than 50 µg/mL for the first, 13.8 µg/mL for the second.

With CCCC(=O)CCC1=C(O)C(=O)c2cc(O)c(O)c(O)c2C1=O the IC50 was 12.6 µg/mL.

tested on: P388; test: Cytotoxicity against vincristine-sensitive mouse P388 cells; type: functional, cell-based

CCCC(=O)CCC1=C(O)C(=O)c2cc(OC)c(OC)c(O)c2C1=O and CCCC(=O)CCC1=C(O)C(=O)c2cc(O)c(OC)c(O)c2C1=O cannot be ordered by IC50: greater than 50 µg/mL for the first, greater than 50 µg/mL for the second.

CCCC(=O)CCC1=C(O)C(=O)c2cc(O)c(O)c(O)c2C1=O was tested, and the IC50 was 12.1 µg/mL (≈ 37.8 µM).
